Source: US20240343704A1, “HALO-SUBSTITUTED AMINO PYRIDINE COMPOUNDS AS INHIBITORS OF THE HAEMATOPOIETIC PROGENITOR KINASE 1 (HPK1)” (priority 2021, published 2024)

Key:
[1] = target: T1, Recombinant (1-346) HPK1 (h) (Homo sapiens, UniProt Q92918); assay: HPK1 Human STE Kinase Enzymatic Radiometric Assay; assay type: biochemical; conditions: read-out: HPK1 IC50 nM Range*
T1 construct: Recombinant (1-346) HPK1 (h) is incubated with 8 mM MOPS pH 7.0
T1 sequence (Q92918 1-346): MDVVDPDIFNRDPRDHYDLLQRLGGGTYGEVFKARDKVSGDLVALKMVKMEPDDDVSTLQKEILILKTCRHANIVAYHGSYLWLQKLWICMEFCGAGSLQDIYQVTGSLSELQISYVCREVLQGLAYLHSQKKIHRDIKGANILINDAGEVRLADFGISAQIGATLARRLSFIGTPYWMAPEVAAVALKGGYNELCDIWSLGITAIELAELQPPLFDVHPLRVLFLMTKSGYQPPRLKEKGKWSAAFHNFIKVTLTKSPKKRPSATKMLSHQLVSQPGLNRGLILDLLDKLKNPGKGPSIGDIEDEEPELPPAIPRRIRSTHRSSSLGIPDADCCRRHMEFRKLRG
Experimental: A stock solution of 10 mM of test compound is prepared in DMSO. The compound plate was prepared by 3-fold and 9-point serial dilutions. […] The reaction is initiated by The addition of the Mg/ATP mix. After incubation for 40 minutes at RT, the reaction is stopped by the addition of phosphoric acid to a concentration of 0.5%.

Lck (h) = Lck (h) (Homo sapiens, UniProt P06239); assay: Lck Human  Kinase Enzymatic Radiometric Assay; assay type: biochemical; conditions: read-out: Lck IC50 nM Range*
Sequence of Lck (h) (P06239 whole entry): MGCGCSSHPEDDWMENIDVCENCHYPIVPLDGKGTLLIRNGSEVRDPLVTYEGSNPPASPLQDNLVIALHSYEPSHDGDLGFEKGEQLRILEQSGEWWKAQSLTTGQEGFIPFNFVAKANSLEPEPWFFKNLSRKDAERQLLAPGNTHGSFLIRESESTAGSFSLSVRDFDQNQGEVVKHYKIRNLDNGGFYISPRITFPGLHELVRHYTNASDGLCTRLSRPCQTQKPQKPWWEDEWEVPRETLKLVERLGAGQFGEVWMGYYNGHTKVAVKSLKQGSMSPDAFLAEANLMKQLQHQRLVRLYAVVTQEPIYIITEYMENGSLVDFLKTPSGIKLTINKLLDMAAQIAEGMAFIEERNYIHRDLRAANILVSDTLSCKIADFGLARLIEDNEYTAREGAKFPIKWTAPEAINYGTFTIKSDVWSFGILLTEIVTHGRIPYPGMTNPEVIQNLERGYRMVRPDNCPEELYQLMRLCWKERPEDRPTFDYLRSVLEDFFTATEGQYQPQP
Summary of the method: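 Substrate 33P-incorporation measured by scintillation counting after spotting on P30 filtermat and phosphoric acid washes. Human Lck reacted 40 min at RT in 50 mM Tris pH 7.5 with 10 mM MgAcetate, [gamma-33P]-ATP, 250 uM Cdc2 peptide, 0.1 mM EGTA and 0.1 mM Na3VO4.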

SMILES | IC50 [1] [nM] | IC50 (Lck (h)) [nM]
CC(C)N1CCN(c2ccc(-c3cc(-c4cc5cc[nH]c(=O)c5cn4)c(N)nc3F)cc2)CC1 [I-401, 6-(2-amino-6-fluoro-5-(4-(4-isopropylpiperazin-1-yl)phenyl)pyridin-3-yl)-2,7-naphthyridin-1(2H)-one] | 0.1 to 10 | > 1000
CC(C)N1CCN(c2ccc(-c3cc(-c4cnc5c(=O)[nH]ccc5c4)c(N)nc3F)cc2)CC1 [I-402, 3-(2-amino-6-fluoro-5-(4-(4-isopropylpiperazin-1-yl)phenyl)pyridin-3-yl)-1,7-naphthyridin-8(7H)-one] | 0.1 to 10 | > 1000
CC(C)N1CCN(c2ccc(-c3cc(-c4cc(F)c5c(=O)[nH]cnc5c4)c(N)nc3F)cc2)CC1 [I-405, 7-(2-amino-6-fluoro-5-(4-(4-isopropylpiperazin-1-y)phenyl)pyridin-3-yl)-5-fluoroquinazolin-4(3H)-one] | 0.1 to 10 | > 1000
CC(C)N1CCN(c2ccc(-c3cc(-c4cc5nc[nH]c(=O)c5cc4F)c(N)nc3F)cc2)CC1 [I-406, 7-(2-amino-6-fluoro-5-(4-(4-isopropylpiperazin-1-yl)phenyl)pyridin-3-yl)-6-fluoroquinazolin-4(3H)-one] | 0.1 to 10 | > 1000
Nc1nc(F)c(-c2ccc(N3CCN(CC4CC4)CC3)cc2)cc1-c1cc(F)c2c(=O)[nH]cnc2c1 [I-407, 7-(2-amino-5-(4-(4-(cyclopropylmethyl)piper-azin-1-yl)phenyl)-6-fluoropyridin-3-yl)-5-fluoroquinazolin-4(3H)-one] | 0.1 to 10 | > 1000
Nc1nc(F)c(-c2ccc(N3CCN(CC4CC4)CC3)cc2)cc1-c1cc2nc[nH]c(=O)c2cc1F [I-408, 7-(2-amino-5-(4-(4-(cyclopropylmethyl)piper-azin-1-yl)phenyl)-6-fluoropyridin-3-yl)-6-fluoroquinazolin-4(3H)-one] | 0.1 to 10 | > 1000
Cc1nc2cc(-c3cc(-c4ccc(N5CCN(C(C)C)CC5)cc4)c(F)nc3N)ccc2c(=O)[nH]1 [I-409, 7-(2-amino-6-fluoro-5-(4-(4-isopropylpiperazin-1-yl)phenyl)pyridin-3-yl)-2-methylquinazolin-4(3H)-one] | 0.1 to 10 | > 1000
CNCc1nc2cc(-c3cc(-c4ccc(N5CCN(C(C)C)CC5)cc4)c(F)nc3N)ccc2c(=O)[nH]1 [I-410, 7-(2-amino-6-fluoro-5-(4-(4-isopropylpiperazin-1-yl)phenyl)pyridin-3-yl)-2-((methylamino)methyl)quin-azolin-4(3H)-one] | 11 to 100 | > 1000
Cc1nc2cc(-c3cc(-c4ccc(N5CCN(CC6CC6)CC5)cc4)c(F)nc3N)ccc2c(=O)[nH]1 [I-411, 7-(2-amino-5-(4-(4-(cyclopropylmethyl)piper-azin-1-yl)phenyl)-6-fluoropyridin-3-yl)-2-methylquinazolin-4(3H)-one] | 11 to 100 | > 1000
Cc1nc2cc(-c3cc(-c4ccc(N5CCN(C(C)C)CC5)cc4)c(F)nc3N)cc(F)c2c(=O)[nH]1 [I-414, 7-(2-amino-6-fluoro-5-(4-(4-isopropylpiperazin-1-yl)phenyl)pyridin-3-yl)-5-fluoro-2-methylquinazolin-4(3H)-one] | 0.1 to 10 | > 1000
Cc1nc2cc(-c3cc(-c4ccc(N5CCN(CC6CC6)CC5)cc4)c(F)nc3N)cc(F)c2c(=O)[nH]1 [I-416, 7-(2-amino-5-(4-(4-(cyclopropylmethyl)piper-azin-1-yl)phenyl)-6-fluoropyridin-3-yl)-5-fluoro-2-methylquinazolin-4(3H)-one] | 0.1 to 10 | > 1000
Cc1nc2cc(-c3cc(-c4ccc(N5CCN(CCC6CC6)CC5)cc4)c(F)nc3N)cc(F)c2c(=O)[nH]1 [I-417, 7-(2-amino-5-(4-(4-(2-cyclopropylethyl)piperazin-1-yl)phenyl)-6-fluoropyridin-3-yl)-5-fluoro-2-methylquinazolin-4(3H)-one] | 0.1 to 10 | > 1000
Cc1c[nH]c(=O)c2ccc(-c3cc(-c4ccc(C5CCOCC5)c(CN(C)C)c4)c(F)nc3N)cc12 [I-426, 6-(2-amino-5-(3-((dimethylamino)methyl)-4-(tetrahydro-2H-pyran-4-yl)phenyl)-6-fluoropyridin-3-yl)-4-methylisoquinolin-1(2H)-one] | 0.1 to 10 | > 1000
CN(C)Cc1nc(-c2cc(-c3cc4c(cc3F)C(=O)NCC4)c(N)nc2F)ccc1N1CCOCC1 [I-427, 6-(6′-amino-6-((dimethylamino)methyl)-2′-fluoro-5-morpholino-[2,3-bipyridin]-5′-yl)-7-fluoro-3,4-dihydroisaoquinolin-1(2H)-one] | 0.1 to 10 | > 1000
CN(C)Cc1cc(-c2cc(-c3cc4c(cc3F)C(=O)NCC4)c(N)nc2F)ccc1C1CCOCC1 [I-429, 6-(2-amino-5-(3-((dimethylamino)methyl)-4-(tetrahydro-2H-pyran-4-yl)phenyl)-6-fluoropyridin-3-yl)-7-fluoro-3,4-dihydroisoquinolin-1(2H)-one] | 0.1 to 10 | > 1000
Cc1cc(-c2cc(-c3ccc4c(c3)CCNC4=O)c(N)nc2F)cc2c1CCNC2 [I-431, 6-(2-amino-6-fluoro-5-(5-methyl-1,2,3,4-tetrahydroisoquinolin-7-yl)pyridin-3-yl)-3,4-dihydroisoquinolin-1(2H)-one] | 0.1 to 10 | > 1000
CN(C)Cc1cc(-c2cc(-c3ccc4c(c3)CCNC4=O)c(N)nc2F)ccc1N1CCOCC1 [I-432, 6-(2-amino-5-(3-((dimethylamino)methyl)-4-morpholinophenyl)-6-fluoropyridin-3-yl)-3,4-dihydroisoquinolin-1(2H)-one] | 0.1 to 10 | > 1000
Cc1cc(-c2cc(-c3ccc4c(c3)CCNC4=O)c(N)nc2F)cc2c1CCN(C)C2 [I-434, 6-(2-amino-5-(2,5-dimethyl-1,2,3,4-tetrahydroisoquinolin-7-yl)-6-fluoropyridin-3-yl)-3,4-dihydroisoquinolin-1(2H)-one] | 0.1 to 10 | > 1000
CC(C)N1CCN(c2ccc(-c3cc(-c4ccc5c(=O)[nH]c(C(F)(F)F)nc5c4)c(N)nc3F)cc2)CC1 [I-435, 7-(2-amino-6-fluoro-5-(4-(4-isopropylpiperazin-1-yl)phenyl)pyridin-3-yl)-2-(trifluoromethyl)quinazolin-4(3H)-one] | 101 to 1000 | > 1000
CN(C)Cc1cc(-c2cc(-c3cc(F)c4c(c3)CCNC4=O)c(N)nc2F)ccc1C1CCOCC1 [I-436, 6-(2-amino-5-(3-((dimethylamino)methyl)-4-(tetrahydro-2H-pyran-4-yl)phenyl)-6-fluoropyridin-3-yl)-8-fluoro-3,4-dihydroisoquinolin-1(2H)-one] | 0.1 to 10 | > 1000
Cc1nc2cc(-c3cc(-c4ccc(C5CCOCC5)c(CN(C)C)c4)c(F)nc3N)ccc2c(=O)[nH]1 [I-437, 7-(2-amino-5-(3-((dimethylamino)methyl)-4-(tetrahydro-2H-pyran-4-yl)phenyl)-6-fluoropyridin-3-yl)-2-methylquinazolin-4(3H)-one] | 11 to 100 | > 1000
Cc1nc2cc(-c3cc(-c4ccc(N5CCN(C(C)C)CC5)cc4)c(F)nc3N)c(F)cc2c(=O)[nH]1 [I-439, 7-(2-amino-6-fluoro-5-(4-(4-isopropylpiperazin-1-yl)phenyl)pyridin-3-yl)-6-fluoro-2-methylquinazolin-4(3H)-one] | 11 to 100 | > 1000
Nc1nc(F)c(-c2ccc(N3CCN(CCCC(F)F)CC3)cc2)cc1-c1cc(F)c2c(c1)CCNC2=O [I-440, 6-(2-amino-5-(4-(4-(4,4-difluorobutyl)piperazin-1-yl)phenyl)-6-fluoropyridin-3-yl)-8-fluoro-3,4-dihydroisoquinolin-1(2H)-one] | 0.1 to 10 | > 1000
CN(C)Cc1cc(-c2cc(-c3ccc4c(c3)CCNC4=O)c(N)nc2F)ccc1N1CCN(CCCC(F)F)CC1 [I-445, 6-(2-amino-5-(4-(4-(4,4-difluorobutyl)piperazin-1-yl)-3-((dimethylamino)methyl)phenyl)-6-fluoropyridin-3-yl)-3,4-dihydroisoquinolin-1(2H)-one] | 0.1 to 10 | > 1000
Cc1cc(-c2cc(-c3ccc4c(c3)CCNC4=O)c(N)nc2F)cc2c1CCN(CCCC(F)F)C2 [I-446, 6-(2-amino-5-(2-(4,4-difluorobutyl)-5-methyl-1,2,3,4-tetrahydroisoquinolin-7-yl)-6-fluoropyridin-3-yl)-3,4-dihydroisoquinolin-1(2H)-one] | 0.1 to 10 | > 1000
Nc1nc(F)c(-c2ccc(N3CCC4(CC3)CN(C3CCC3)C4)cc2)cc1-c1cc2c(cc1F)C(=O)NCC2 [I-449, 6-(2-amino-5-(4-(2-cyclobutyl-2,7-diazaspiro[3.5]nonan-7-yl)phenyl)-6-fluoropyridin-3-yl)-7-fluoro-3,4-dihydroisoquinolin-1(2H)-one] | 0.1 to 10 | > 1000
